Results: ChEMBL document CHEMBL1127522, “[L-Ala3]DPDPE: a new enkephalin analog with a unique opioid receptor activity profile. Further evidence of delta-opioid receptor multiplicity” (J Med Chem, 1994)
Bridge positions count the residues as written; N and C are the ends. Square brackets hold non-standard residues; d marks the D form. Peptide text beside a SMILES is read from it. dPen = CC(C)(S)[C@@H](N)C(=O)O; dAbu = CC[C@@H](N)C(=O)O

Tests used:
Mu-type opioid receptor = Mu-type opioid receptor (Rattus norvegicus, UniProt P33535); assay: Evaluation for the binding affinity by competitive inhibition of [3H]- CTOP binding
[1] = molecular target: Delta-type opioid receptor (Rattus norvegicus, UniProt P33533); assay: Evaluation for the binding affinity by competitive inhibition of [3H]- p-chloro DPDPE binding
[2] = molecular target: Delta-type opioid receptor (Mus musculus, UniProt P32300); assay: Inhibitory activity of the electrically induced smooth muscle contraction of mouse vas deferens; assay type: functional, tissue-based
Sequence of Delta-type opioid receptor (Mus musculus, UniProt P32300) (P32300 whole entry): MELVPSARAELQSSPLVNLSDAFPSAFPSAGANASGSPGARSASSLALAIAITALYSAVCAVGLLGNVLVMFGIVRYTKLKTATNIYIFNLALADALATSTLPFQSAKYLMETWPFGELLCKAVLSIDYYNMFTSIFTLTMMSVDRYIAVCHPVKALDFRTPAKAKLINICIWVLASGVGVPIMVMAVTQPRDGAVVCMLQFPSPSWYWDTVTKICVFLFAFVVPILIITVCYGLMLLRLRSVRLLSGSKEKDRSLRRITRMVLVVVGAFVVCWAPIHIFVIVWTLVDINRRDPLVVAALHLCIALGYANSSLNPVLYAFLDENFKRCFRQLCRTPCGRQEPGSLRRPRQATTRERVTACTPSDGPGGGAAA

Sequence of Mu-type opioid receptor (P33535 whole entry): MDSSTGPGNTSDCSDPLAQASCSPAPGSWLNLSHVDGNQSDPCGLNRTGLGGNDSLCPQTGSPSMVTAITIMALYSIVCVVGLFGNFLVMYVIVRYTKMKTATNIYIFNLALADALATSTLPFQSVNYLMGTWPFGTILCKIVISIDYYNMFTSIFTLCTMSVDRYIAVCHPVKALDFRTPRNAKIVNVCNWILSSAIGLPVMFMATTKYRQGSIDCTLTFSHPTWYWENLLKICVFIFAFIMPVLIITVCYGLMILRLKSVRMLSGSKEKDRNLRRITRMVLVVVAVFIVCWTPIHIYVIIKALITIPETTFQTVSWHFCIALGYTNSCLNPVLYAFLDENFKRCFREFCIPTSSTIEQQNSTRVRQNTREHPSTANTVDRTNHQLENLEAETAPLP
Sequence of Delta-type opioid receptor (Rattus norvegicus, UniProt P33533) (P33533 whole entry): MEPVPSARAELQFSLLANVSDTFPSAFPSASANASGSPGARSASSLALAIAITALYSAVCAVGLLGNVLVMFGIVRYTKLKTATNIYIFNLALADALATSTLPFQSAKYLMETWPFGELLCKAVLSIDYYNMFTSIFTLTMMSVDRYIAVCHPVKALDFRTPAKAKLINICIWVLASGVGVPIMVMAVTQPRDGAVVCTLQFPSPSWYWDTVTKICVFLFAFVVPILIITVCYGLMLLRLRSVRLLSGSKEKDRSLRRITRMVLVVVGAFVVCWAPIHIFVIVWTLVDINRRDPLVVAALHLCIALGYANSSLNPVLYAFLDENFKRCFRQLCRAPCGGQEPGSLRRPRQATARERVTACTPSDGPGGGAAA

For `CC1(C)SSC(C)(C)[C@@H](NC(=O)[C@@H](N)Cc2ccc(O)cc2)C(=O)N[C@@H](CO)C(=O)N[C@@H](Cc2ccccc2)C(=O)N[C@H]1C(=O)O` (H-Y[dPen]SF[dPen]-OH; disulfide 2-5), the IC50 (Mu-type opioid receptor) was over 22500 nM.

For `CC[C@H]1NC(=O)[C@H](NC(=O)[C@@H](N)Cc2ccc(O)cc2)C(C)(C)SSC(C)(C)[C@H](C(=O)O)NC(=O)[C@H](Cc2ccccc2)NC1=O` (H-Y[dPen][dAbu]F[dPen]-OH; disulfide 2-5), the IC50 [1] was 2500 nM and the IC50 (Mu-type opioid receptor) was over 50000 nM.

`CC1(C)SSC(C)(C)[C@@H](NC(=O)[C@@H](N)Cc2ccc(O)cc2)C(=O)N[C@H](CO)C(=O)N[C@@H](Cc2ccccc2)C(=O)N[C@H]1C(=O)O` (H-Y[dPen][dS]F[dPen]-OH; disulfide 2-5) gave an IC50 (Mu-type opioid receptor) of over 50000 nM and an IC50 [2] of 1300 nM.
